Article PMC8665362, “Identification of small-molecule allosteric modulators that act as enhancers/disrupters of rhodopsin oligomerization” (The Journal of Biological Chemistry, 2021)
Marks after values point to notes of the source that are not given here.

Legend:
[1] = tested on: rod photoreceptors of isolated mouse retinas; experiment: ex vivo ERG of isolated mouse retinas (rod light responses); assay type: cell-based, mouse (C57BL/6J); conditions: 250 μM compound
Excerpt: We determined the impact of compound #7 (representative disrupter of rhodopsin dimerization) and compound #1 (representative enhancer) on the sensitivity and kinetics of rod light responses, using ex vivo electroretinogram (ERG) analysis of isolated mouse retinas (Experimental procedures). This technique allows robust recordings from intact retinas and is well suited for quantitative investigation of mouse phototransduction ([48], [49], [50], [51], [52], [53]).
Ex vivo ERG recordings were conducted with isolated retinas of C57Bl/6J mice, as described ([41], [62], [63]). Mice were dark-adapted overnight and euthanized by CO2 asphyxiation, and whole retinas were dissected under dim red light. Before recordings, retinas were incubated for 5 h in Ames’ medium (Sigma-Aldrich) inside a light-tight box that was supplied with humidified 95% O2/5% CO2. For control retinas, 0.1% DMSO was added to the incubation medium, and for others, the incubation medium contained either 250 μM F2502-0030 (compound #1) or F5897-0190 (compound #7). These compounds were first dissolved in DMSO at 250 mM concentration, and 0.1% of this stock solution was added to the incubation medium (Ames’ medium). Stock solution was stored at −20 °C and used within a week. After incubation, retinas were placed on the ex vivo ERG specimen holder and perfused with Ames’ medium (saturated with 95% O2/5% CO2) at 1.5 ml/min at 35 °C. Ames’ medium was supplemented with 100 μM BaCl2 and 40 μM DL-AP4 (Tocris Bioscience) to isolate the photoreceptor component of the ERG signal. Responses were recorded to 5 ms flashes of light (630 nm) ranging from 276 to 308,534 photons μm^−2, corresponding to 1 to 1100 photons μm^−2 at 500 nm ([64]). Sensitivity of rod photoreceptors was determined in three ways: (1) sF = peak amplitude of dim flash response divided by flash energy (1 photon μm^−2); (2) SF = sF/Rmax, where Rmax is the maximal response amplitude measured at the plateau from a saturated rod response; (3) I1/2: flash energy required to elicit 50% of the Rmax determined by fitting a Naka-Rushton function to flash energy-amplitude data.

[2] = target: rhodopsin (isorhodopsin) dimerization (Homo sapiens, UniProt P08100); experiment: rhodopsin β-gal fragment complementation assay in U2OS opsin-EA/opsin-PK cells; assay type: cell-based; parameters: expressed in transfected cells; conditions: U2OS opsin-EA/PK cells regenerated with 9-cis-retinal; triplicates; read from Fig. 3A,D
Sequence of rhodopsin (isorhodopsin) dimerization (P08100 whole entry, the tested form may be a part): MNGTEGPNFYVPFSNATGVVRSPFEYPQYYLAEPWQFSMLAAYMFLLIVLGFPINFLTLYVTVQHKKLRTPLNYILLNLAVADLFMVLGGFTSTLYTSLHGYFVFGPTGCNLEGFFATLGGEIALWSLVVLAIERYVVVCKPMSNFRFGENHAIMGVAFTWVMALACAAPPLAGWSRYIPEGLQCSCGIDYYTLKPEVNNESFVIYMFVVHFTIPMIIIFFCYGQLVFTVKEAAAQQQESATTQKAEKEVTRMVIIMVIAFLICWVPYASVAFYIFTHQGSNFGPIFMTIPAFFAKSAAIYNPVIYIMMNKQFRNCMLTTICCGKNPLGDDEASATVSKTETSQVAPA
Excerpt: To identify small molecules that target rhodopsin dimerization, a cell-based high-throughput screening (HTS) assay was used to screen a diverse library of 50,000 compounds from Life Chemicals. The human osteosarcoma (U2OS) stable cell line was used, which expresses opsin fused with complimentary subunits of β-galactosidase (β-gal), namely, the enzyme acceptor large β-gal subunit (EA) and the enzyme donor, small subunit of β-gal (PK). Upon rhodopsin self-association in vitro, a competent β-gal was formed and chemiluminescent signal was generated in the presence of β-gal substrate (Fig. 1A). For further validation, the β-gal activity assay was used to counter-screen and rule out false positives, affecting the activity of β-gal without affecting rhodopsin (Fig. 1B) ([34]). In an orthogonal assay, rhodopsin dimerization was assessed using a bioluminescence resonance energy transfer (BRET) assay with human embryonic kidney 293 cells expressing opsin fused with Renilla luciferase and opsin fused with Venus (Fig. 1C) ([35], [36]). To form functional visual pigment, opsin-fused proteins were regenerated with 9-cis-retinal to form so-called isorhodopsin ([37]). We chose 9-cis-retinal over photoreceptor-endogenous 11-cis-retinal because of its availability and the prohibitive cost for HTS assays with the native chromophore. Rhodopsin and isorhodopsin have similar biochemical and spectral properties (see ([38])).
All 50,000 compounds were screened, using the β-gal complementation assay at a final concentration of 60 μM with a Z′ factor of 0.75 ± 0.01 and a signal-to-background (S/B) ratio of 123 ± 14.4 (Fig. 2A) ([39]). The activity scores were calculated according to the following equation: (RLU(compound)−RLU(positivecontrol))/(RLU(negativecontrol)−RLU(positivecontrol))×100.
The positive control comprised U2OS cells transfected with both opsin-EA and opsin-PK, mimicking dimer formation (with a 0% score value), and the negative control comprised U2OS cells transfected with opsin-EA only, mimicking disrupted dimer formation (with a 100% score value).
In this study, cultured U2OS opsin-EA and opsin-PK cells were diluted to 2 × 10^5 cells/ml in the culture medium containing 10% fetal bovine serum (Thermo Fisher Scientific) and 1% penicillin-streptomycin 10,000 U/ml (Thermo Fisher Scientific). Cell diluent of 20 μl/well was dispensed into a white ViewPlate-384 (PerkinElmer) using the EL406 plate dispenser (BioTek). As a control, we used U2OS opsin-EA–only expressing cells as a positive control for dimerization disruption generating a minimal luminescence signal, as previously described ([41]). The plates were cultured overnight at 37 °C in 5% CO2, and the next day, under a dim red light, cells were treated with 5 μl/well of 9-cis-retinal (Sigma-Aldrich) at 7.5 μM final concentration. Plates were covered with aluminum foil and cultured overnight at 37 °C in 5% CO2. Next, cells were treated with each of the 50,000 library compounds (Life Chemicals Inc) at a final concentration of 57.6 μM, using a JANUS automated workstation (PerkinElmer), followed by incubation overnight at 37 °C, covered with aluminum foil. The next day, cells were treated with Galacton-Star chemiluminescent substrate (23 μl/well; Thermo Fisher Scientific). The plates were covered with foil and incubated at 20 °C for 2 h, followed by luminescence reading with the EnSpire multimode plate reader (PerkinElmer). Measurements were evaluated with the lowest value being defined as −50% (dimer enhancers) and the highest value as 100% (dimer disrupters) in the compound dataset. All experiments were done under red-light conditions. Identified compounds were retested in triplicates ranging from 180 μM down to 2.4 nM concentrations.

O=C(CSc1nnc(NC(=O)Cc2ccc(F)cc2)s1)NO [#1]
effect on kinetics of rod light responses [1]: did not substantially affect the kinetics of responses | Rmax ([1]; 5 h incubation, N = 4 retinas): 320 ± 80 ^a μV | half-saturating I1/2 from best-fitting Michaelis–Menten equation to mean normalized amplitudes ([1]; Fig. 5F): 37 photons μm^−2 | SF (fractional sensitivity, sF/rmax) ([1]; N = 4): 5.0 ± 0.3 ^a %/photons∙μm^−2 | sF (absolute sensitivity) ([1]; N = 4): 13 ± 5 ^a μV/photons∙μm^−2 | I1/2 ([1]; from individual retinas, N = 4): 37 ± 2 ^a photons∙μm^−2 | tp ([1]; time-to-peak of dim flash (1 photon μm^−2), N = 4): 163 ± 12 ms | EC50 [2]: 2300 nM
